Data from publication PMC2667487, “Cellular localization of kinin B1 receptor in the spinal cord of streptozotocin-diabetic rats with a fluorescent [N^α-Bodipy]-des-Arg^9-bradykinin” (Journal of Neuroinflammation, 2009).
Where “and” joins values, the source holds several entries; their conditions need not be identical. Equal values may be shown once. Entries after “also recorded” stand apart in the source; their conditions may differ.

Assays:
B2 receptors = details: via B2 receptors, protein kinase C; cited from earlier work
From the text: (§1) NF-κB upregulates B1R upon binding to its nuclear promoter.

[1] = test system: B1R in primary microglial cells; details: cited from earlier work
From the text: as §1

[2] = test system: B1R in primary microglial cells; assay: B1R induction and BdABK labeling in primary cultured microglial cells; format: cell-based, rat; details: 300 nM BK, 24 h
Description: Mixed glial cultures were prepared following the protocol of McCarthy and de Vellis with some modifications. Briefly, forebrains were dissected out from one litter of 2-day-old Sprague-Dawley rat pups and the meninges were stripped off before enzymatic and mechanical dissociation. For enzymatic dissociation, HBSS containing 0.25% trypsin (Gibco 15090-046) was used. The tissue-trypsin suspension was incubated for 20 min at 37°C in a water bath with intermittent shaking. After the waiting time for the trypsin digestion is over we added to the tissue-trypsin suspension a mixture of prewarmed DMEM/Dnase I (Sigma DN-25, Dnase I final concentration 0. 25 mg/ml) followed by an incubation for 4 min at 37°C. The resulting suspension was dispersed by a mild mechanical trituration which consisted in the passage through 18-, 22- and 25- gauge needles. This cell suspension was then filtred through 70 μm strainer (BD Falcon 352350). After extensive washs in prewarmed HBSS, these dissociated cells were resuspended and plated in 75-cm^2 Falcon tissue-culture flasks (BD Biosciences) previously coated with 10 μg/ml poly-D-lysine (PDL). These mixed cells were growing at 37°C and 5% CO2 in DMEM (Gibco) supplemented with 10% FBS, penicillin (100 units/ml), and streptomycin ([…]). The media was changed every 2 or 3 days thereafter. […]

[3] = test system: rat model of insulin-resistance; details: cited from earlier work
From the text: Importantly, the development of tactile and cold allodynia in a rat model of insulin-resistance was blocked by the B1R antagonist SSR240612 [28] and by two antioxidants (N-acetyl-L-cysteine and alpha-lipoic acid) ...

[4] = test system: B1R in thoracic spinal cord; assay: BdABK fluorescent labeling of B1R and its displacement, confocal microscopy; format: binding, rat; details: STZ-treated thoracic spinal cord, BdABK 50 μM co-incubated with 10^-5 M antagonist
Description: On the day of experiments, sections were thawed at room temperature for 10 min to enhance sections adhesion. They were pre-incubated for 10 min in 25 mM PIPES-NH4OH buffer (pH 7.4) to allow degradation of endogenous kinins which could occupy receptors. Sections were exposed for 90 min to 50 μM BdABK. Thereafter, slides were washed twice (1 min) in PIPES and fixed with 4% para-formaldehyde. Slides were washed three times (5 min) and then exposed to 1 M of glycine for 90 min to eliminate autofluorescence from aldehyde-fixed tissue. […] Each concentration of each competitor was tested on 4 sections per rat from 7 different rats. Those sections were exposed to the film, and total binding was calculated as described above.

kinin B2R = biological target: T1, kinin B2R (Rattus norvegicus, UniProt P25023); assay: competition curves by quantitative autoradiography, displacement of [^125I]-HPP-Hoe 140 (B2R); details: 200 pM [^125I]-HPP-Hoe 140, competitor 10^-10 to 10^-6 M, thoracic spinal cord sections of STZ-treated rats, 90 min, room temperature, 25 mM PIPES-NH4OH pH 7.4; means ± SEM, 4 sections per rat from 7 rats; read-out: IC50, displacement of B2R binding sites
T1 construct: from tissue; host or cells: rat tissue sections (spinal cord, autoradiography)
T1 sequence (P25023 1-396): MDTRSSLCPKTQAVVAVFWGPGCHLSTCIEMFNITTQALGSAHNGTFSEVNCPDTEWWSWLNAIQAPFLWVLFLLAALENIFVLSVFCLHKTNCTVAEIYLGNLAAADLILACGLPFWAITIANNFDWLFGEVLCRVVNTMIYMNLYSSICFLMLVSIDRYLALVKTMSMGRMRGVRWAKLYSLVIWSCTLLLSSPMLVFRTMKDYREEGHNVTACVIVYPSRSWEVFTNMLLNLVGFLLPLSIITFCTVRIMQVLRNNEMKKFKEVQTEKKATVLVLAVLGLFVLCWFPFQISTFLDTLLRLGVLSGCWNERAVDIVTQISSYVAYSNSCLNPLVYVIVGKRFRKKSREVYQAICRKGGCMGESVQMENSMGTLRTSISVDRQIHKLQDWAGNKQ
Description: They were iodinated by the chloramine T method. […] At the end of the incubation period, slides were transferred sequentially through four rinses of 4 min each in 25 mM PIPES (pH 7.4; 4°C) dipped for 15s in distilled water (4°C) to remove the excess of salts, and then air-dried. Kodak Scientific Imaging Films BIOMAXTM MR® (Amersham Pharmacia Biotech Canada) were juxtaposed onto the slides in the presence of [^125I]-microscales and exposed at room temperature for 7 days. The films were developed (GBX developer) and fixed (GBX fixer). Autoradiograms were quantified by densitometry using an MCIDTM image analysis system (Imaging Research, St. Catharines, ON, Canada). A standard curve from [^125I]-microscales was used to convert density levels into fentomoles per milligram of protein [48]. Specific binding was determined by subtracting values of nonspecific binding from that of total binding. […] Each concentration of each competitor was tested on 4 sections per rat from 7 different rats. Those sections were exposed to the film, and total binding was calculated as described above. […] All data were expressed as means ± S.E.M. obtained from n rats. Statistical significance was determined with Student's t-test for unpaired samples or a one-way analysis of variance (ANOVA) followed by post-hoc Dunnett test for multiple comparisons.

[5] = test system: B1R mRNA in thoracic spinal cord; assay: B1R mRNA expression, SYBR green-based quantitative RT-PCR; parameters: species or system rat; details: STZ 65 mg/kg i.p., 4 days, 18S reference, means of 3 to 6 rats
Description: (§2) Rats were used 5 days after their arrival and injected under low light with freshly prepared STZ (65 mg/kg; i.p.; Sigma-Aldrich, Oakville, ON, Canada). Age-matched controls were injected with vehicle (sterile saline 0.9%, pH. 7.0). Glucose concentrations were measured, with a commercial blood glucose-monitoring kit (Accusoft; Roche Diagnostics, Laval, Que., Canada), in blood samples obtained from the tail vein, in non-fasting animals, before STZ injection, and 4 days after treatment. Only STZ-treated rats whose blood glucose concentration was higher than 20 mM were considered as diabetic.
Four days after injection of STZ, rats were anaesthetized with CO2 inhalation and then decapitated. […] First-strand cDNA synthesized from 400 ng total RNA with random hexamer primers was used as template for each reaction with the QuantiTect Rev Transcription Kit (QIAGEN). SYBR Green-based real-time quantitative PCR using Mx3000p device for signal detection (Stratagene, La Jolla, CA, USA) was performed as described. […] For standardization and quantification, rat 18S was amplified simultaneously. […]
PCR conditions were as follows: 95°C for 15 min, followed by 46 cycles at 94°C for 15 s, 60°C for 30 s and 72°C for 30 s. […] The relative quantification of gene expression was analyzed by the 2^-ΔΔCt method.

[6] = test system: B1R binding sites in thoracic spinal cord; assay: density of specific B1R binding sites, quantitative autoradiography; parameters: species or system rat; details: STZ 65 mg/kg i.p., 4 days, 7 to 8 rats
Description: as §2
The radioligands for kinin B1R, HPP-desArg^10-Hoe140 (3-(4 hydroxyphenyl) propionyl-desArg^9-D-Arg^0 [Hyp^3, Thi^5, D-Tic^7, Oic^8]Bradykinin) and kinin B2R, HPP-Hoe140 (3-(4 hydroxyphenyl) propionyl-D-Arg^0 [Hyp^3, Thi^5, D-Tic^7, Oic^8]Bradykinin) were synthesized and kindly provided by Dr Witold Neugebauer (Dept Pharmacology, University of Sherbrooke, Sherbrooke, Que., Canada). They were iodinated by the chloramine T method. […] Autoradiograms were quantified by densitometry using an MCID™ image analysis system (Imaging Research, St. Catharines, ON, Canada). […] Specific binding was determined by subtracting values of nonspecific binding from that of total binding.

Compound: BK: bradykinin, preferential B2R agonist; used to induce B1R in microglia (RPPGFSPFR; Bradykinin; UniProt P01042 381-389, looked up)
- intracellular calcium and NF-κB activation (B2 receptors): induces elevation of intracellular calcium leading to the phosphorylation and activation of NF-κB
- B1R expression in cultured rat microglia exposed to BK [1]: B1R can be expressed in cultured rat microglia
- induction of B1R in primary microglial cells [2]: B1R was induced

Compound: CCN(C(=O)[C@@H](Cc1ccc(CN2[C@H](C)CCC[C@@H]2C)cc1)NC(=O)C[C@@H](NS(=O)(=O)c1ccc2cc(OC)ccc2c1)c1ccc2c(c1)OCO2)C(C)C.Cl [SSR240612]
- development of tactile and cold allodynia [3]: blocked
- displacement of BdABK labeling by B1R antagonist [4]: absence of BdABK labeling; also recorded: B1R labeling was absent; also recorded: elimination of B1R labeling

Compound: NC(N)=NCCC[C@@H](N)C(=O)N[C@@H](CCCN=C(N)N)C(=O)N1CCC[C@H]1C(=O)N1C[C@H](O)C[C@H]1C(=O)NCC(=O)N[C@@H](Cc1cccs1)C(=O)N[C@@H](CO)C(=O)N1Cc2ccccc2C[C@@H]1C(=O)N1[C@H](C(=O)N[C@@H](CCCN=C(N)N)C(=O)O)C[C@@H]2CCCC[C@@H]21 [Hoe 140]
- IC50 (kinin B2R): 1.33 ± 0.1 nM

Compound: CN(N=O)C(=O)N[C@H]1C(O)O[C@H](CO)[C@@H](O)[C@@H]1O (mixture of isomers) [STZ, streptozotocin]
- B1R mRNA expression increase (fold change vs control) [5]: 18 fold and 18.1 fold
- B1R binding sites, fold vs control [6]: 2.7 fold
